Earlier results, collected in patent publication US11702444B2, “Method for preparing natural bioactive peptide Tubulysin U” (Shenzhen Institute of Geriatrics, priority 2020, dated 2023).

How the values were obtained:
[1] = tested on: MCF-7 breast cancer cells; settings: antiproliferative activity in vitro
1A9 ovarian cancer cells = settings: antiproliferative activity in vitro

In the case of `CC[C@H](C)[C@H](NC(=O)[C@H]1CCCCN1C)C(=O)N[C@H](C[C@@H](OC(C)=O)c1nc(C(=O)N[C@@H](Cc2ccccc2)C[C@H](C)C(=O)O)cs1)C(C)C` [Tubulysin U], the IC50 [1] is given as 0.4 nM and the IC50 (1A9 ovarian cancer cells) is given as 0.65 nM.
